Experimental data taken from patent US10501817B2, “Process for the manufacture of co-crystallized sucrose natural sweeteners and the products thereof” (IMPERIAL SUGAR COMPANY, priority 2010, dated 2019).

How the values were obtained:
[1] = cited from earlier work; for times sweeter than sucrose: sweetness relative to sucrose/sugar
[2] = Taste testing of sweetener compositions in water by trained descriptive panel; assay type: in vivo, human; conditions: in water at room temperature; 12-point scale; aftertaste at 30 seconds
From the text: A panel of trained and experienced descriptive panelists (Food Marketing Support Services, Inc.) tasted, described and documented sensory behavior of selected sweetener compositions in water at ambient (room) temperature. The sweetener samples tested were: sugar (100%; Imperial Sugar); Truvia (100%), a consumer brand Stevia sweetener containing a mixture erythritol and Rebiana; Reb-A 97 (100%; Pure Circle), a sugar (75% reduction)—rebaudioside A blended or granulized mixture; a sugar (50% reduction)—rebaudioside A blended or granulized mixture; a sugar/rebaudioside A co-crystallization product in accordance with the instantly described process and the resultant product with a 50% calorie reduction (Co-Crystal (50% Reduction)); and, a sugar/rebaudioside A co-crystallization product in accordance with the instantly described process and the resultant product with a 75% calorie reduction (Co-Crystal (75% Reduction).
Sample Preparation: On the day of the testing panel, a predetermined weight of sugar or sweetener was weighed out. […]
The beaker is gently swirled five (5) times, and the watch glass cover is removed. […] Sweetness was evaluated relative to standardized concentrations of sucrose in water. Samples were also evaluated for character nuances and quantifying attribute intensities such as residual mouth sensations and aftertastes, using a 12-point scale. […]

Q: For C=C1C[C@@]23CC[C@H]4[C@@](C)(CCC[C@@]4(C)C(=O)O[C@@H]4O[C@H](CO)[C@@H](O)[C@H](O)[C@H]4O)[C@@H]2CC[C@]1(O[C@@H]1O[C@H](CO)[C@@H](O)[C@H](O[C@@H]2O[C@H](CO)[C@@H](O)[C@H](O)[C@H]2O)[C@H]1O[C@@H]1O[C@H](CO)[C@@H](O)[C@H](O)[C@H]1O)C3 [rebaudioside A], which “astringency, bitterness and aftertaste among diterpenoid glycoside sweeteners of Stevia extracts” value ([1]; in vivo) is on record?
A: The value was “the least astringent, the least bitter, and with the least persistent aftertaste”.

Q: And the “times sweeter than sucrose” value [1]?
A: Its value is 200-300 times.

Q: What about the “flavor/taste profile compared with pure sugar” value [2] of the same molecule?
A: The value was “most extreme flavor profile across the array”.

Q: Which “times sweeter than sucrose” value [1] does the source give for C=C1C[C@@]23CC[C@H]4[C@@](C)(CCC[C@@]4(C)C(=O)O[C@@H]4O[C@H](CO)[C@@H](O)[C@H](O)[C@H]4O)[C@@H]2CC[C@]1(O[C@@H]1O[C@H](CO)[C@@H](O)[C@H](O)[C@H]1O[C@@H]1O[C@H](CO)[C@@H](O)[C@H](O)[C@H]1O)C3 [stevioside] here?
A: The value was “about 200 times”.
